Data reported in PubChem BioAssay (NCI).
Where “and” joins values, the source holds several entries; their conditions need not be identical. Equal entries are not always repeated.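 Assay format: 96-well plates, 48-hour exposure. Here, GI50 denotes the concentration required for 50% inhibition of growth. The concentration for full growth arrest is given as TGI.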

Columns and labels:
Assay in all cases: DTP human tumour cell line panel, 48 h
A549 NSCLC = tested on: A549 NSCLC
HCT-116 colon = tested on: HCT-116 colon
HCT-15 colon = tested on: HCT-15 colon
HOP-92 NSCLC = tested on: HOP-92 NSCLC
K-562 leukemia = tested on: K-562 leukemia
MCF7 breast = tested on: MCF7 breast
OVCAR-3 ovarian = tested on: OVCAR-3 ovarian
SF-539 CNS = tested on: SF-539 CNS
SNB-75 CNS = tested on: SNB-75 CNS
SR leukemia = tested on: SR leukemia

Compound | GI50 (A549 NSCLC) | TGI (A549 NSCLC) | GI50 (HCT-116 colon) | TGI (HCT-116 colon) | GI50 (HCT-15 colon) | TGI (HCT-15 colon) | TGI (HOP-92 NSCLC) | GI50 (K-562 leukemia) | TGI (K-562 leukemia) | GI50 (MCF7 breast) | TGI (MCF7 breast) | GI50 (OVCAR-3 ovarian) | TGI (OVCAR-3 ovarian) | GI50 (SF-539 CNS) | TGI (SF-539 CNS) | GI50 (SNB-75 CNS) | TGI (SNB-75 CNS) | TGI (SR leukemia) | GI50 (HOP-92 NSCLC) | GI50 (SR leukemia)
COc1cc(C(=O)c2cnc(-c3c[nH]c4cccc(C)c34)[nH]2)cc(OC)c1OC | 0.0109 µM | > 100 µM | 0.00346 µM | 11.1 µM | 0.00659 µM | > 100 µM | 18.3 µM | 0.00363 µM | 17.4 µM | 0.00344 µM | > 100 µM | 0.00332 µM | 0.0125 µM | 0.00289 µM | 0.00874 µM | 0.00257 µM | 36.8 µM | > 100 µM |  | 
CN(C)CCCN1c2ccccc2Sc2ccc(C(F)(F)F)cc21 | 1.89 µM | 3.83 µM and 31.9 µM and 31.4 µM | 1.64 µM | 3.13 µM and 28.5 µM and 27.2 µM | 1.92 µM | 3.73 µM and 31 µM and 31.1 µM | 2.99 µM and 26.3 µM | 2.03 µM | 4.08 µM and 30.9 µM | 1.6 µM |  |  |  | 1.83 µM |  | 1.32 µM | 3.51 µM and 26 µM and 24.8 µM |  | 1.04 µM | 2.14 µM
O=C1CCC(c2ccccc2)=NN1c1nc2ccccc2s1 |  | > 100 µM |  | > 88.2 µM |  | 99.1 µM | > 73.8 µM |  | > 100 µM |  | > 100 µM |  | 42.4 µM |  | > 63.7 µM |  | > 79.4 µM | > 84.6 µM |  | 
Cc1sc(/N=C/C2=C(O)CC(C)(C)CC2=O)nc1-c1ccccc1 |  | > 100 µM |  | > 100 µM |  | > 100 µM | > 100 µM |  | > 100 µM |  | > 100 µM |  | > 100 µM |  | > 100 µM |  | > 100 µM | > 100 µM |  | 
O=C(Nc1ccn(C2CC(O)C(COC(c3ccccc3)(c3ccccc3)c3ccccc3)O2)c(=O)n1)c1ccccc1 (stereo not drawn) |  | 16.7 µM |  | 4.29 µM |  | 6.4 µM | 3.59 µM |  | 7.3 µM |  | 8.39 µM |  | 3.52 µM |  | 8.49 µM |  | 9.05 µM | 5.34 µM |  | 
CC(=O)ON(OCc1ccc2ccccc2c1)C(C)=O | > 100 µM | > 100 µM | > 100 µM | > 100 µM | > 100 µM | > 100 µM | > 100 µM | > 100 µM | > 100 µM | 96.1 µM | > 100 µM | > 100 µM | > 100 µM | > 100 µM | > 100 µM | 96.6 µM | > 100 µM | > 100 µM | 34.8 µM | 86.5 µM
CCCCNc1ncnc2c1cnn2-c1ccccc1 | 5.29 µM | > 92.8 µM | 1.32 µM | > 100 µM | 0.947 µM | > 50.1 µM | 55.6 µM |  |  | 2.11 µM | > 100 µM | 1.46 µM | 5.16 µM | 4.05 µM | > 100 µM | 2.11 µM | 39.9 µM | > 100 µM | 3.21 µM | 0.444 µM
Clc1ccc2c(NCCNc3nc(N4CCOCC4)nc4ccccc34)ccnc2c1 | 2.96 µM | 10.6 µM | 1.66 µM | 3.3 µM | 2.49 µM | 8.47 µM | 3.2 µM | 0.892 µM | 13.1 µM | 3.82 µM | 17.2 µM | 1.84 µM | 3.53 µM | 1.73 µM | 3.34 µM | 1.44 µM | 2.85 µM | 2.03 µM | 1.43 µM | 0.313 µM
COc1cc(C2CC(c3ccccc3)=NN2C=O)ccc1Oc1ccnc2cc(Cl)ccc12 (stereo not drawn) | 8.87 µM | > 100 µM | 6.07 µM | > 100 µM | > 100 µM | > 100 µM | 13.6 µM |  |  | 5.7 µM | > 100 µM | 18.6 µM | > 100 µM | 10.3 µM | 77.9 µM | 3.31 µM | 21 µM | > 100 µM | 1.5 µM | > 100 µM
Cc1cc(C)c2nc3c(c(C(O)C4CCCCN4)c2c1)CC/C3=C\c1ccc(Cl)cc1 (stereo not drawn) |  | > 100 µM |  | > 100 µM |  | > 100 µM | > 100 µM |  | > 100 µM |  | > 100 µM |  | > 100 µM |  | > 100 µM |  | > 100 µM | > 100 µM |  | 
COc1cccc(C2CC(=O)Nc3c2c(C)nn3-c2nc3ccccc3[nH]2)c1OC (stereo not drawn) | 3.5 µM | 28.6 µM | 3.36 µM | 14.6 µM | 3.45 µM | 26.8 µM | 24.3 µM | 3.89 µM | > 100 µM | 3.36 µM | > 100 µM | 4.55 µM | 19.8 µM | 2.76 µM | 9.38 µM | 2.43 µM | 13.5 µM | > 40.9 µM | 2.95 µM | 4.22 µM
CCSC[C@@H]1C[C@](O)(c2ccccc2)[C@@H](c2ccccc2)O1 | 82.9 µM | > 100 µM | 58.6 µM | > 100 µM | 82.1 µM | > 100 µM | > 100 µM | 12.3 µM | > 100 µM | 74.6 µM | > 100 µM | 70.1 µM | > 100 µM | > 100 µM | > 100 µM | 61.4 µM | > 100 µM | 9.3 µM | 65.5 µM | < 0.136 µM
COC(=O)[C@@]12OC[C@]34[C@H]([C@@H](O)[C@@H]1O)[C@@]1(C)CC(=O)C(O)=C(C)[C@@H]1C[C@H]3OC(=O)[C@H](OC(=O)/C=C(\C)C(C)C)[C@@H]24 |  | 0.0168 µM and < 0.0163 µM and 0.0473 µM |  | 0.0144 µM and 0.0478 µM |  | 0.0588 µM and 0.0562 µM and 0.055 µM | 0.0378 µM and 0.0921 µM |  |  |  | 0.021 µM and 0.0264 µM |  | 0.0151 µM and 0.0911 µM |  | 0.00611 µM and 0.0234 µM |  | 0.0186 µM and 0.0203 µM | 0.0369 µM |  | 
Cc1cc(NC(=O)NCc2ccc(N3C(N)=NC(N)=NC3(C)C)cc2)ccc1S(=O)(=O)F | 0.528 µM | > 32.1 µM | 0.429 µM | > 100 µM | 11.2 µM | > 100 µM | > 100 µM | 0.484 µM | > 100 µM | 1.93 µM | > 100 µM | 8.4 µM | > 81.9 µM | 2.38 µM | > 69.2 µM | > 32.3 µM | > 100 µM | > 43.5 µM | 23.2 µM | 0.502 µM
O=c1cc(-c2ccccc2)oc2ccc(Cl)cc12 |  | > 100 µM |  | > 100 µM |  | > 100 µM | 73.2 µM |  | > 96.2 µM |  | > 100 µM |  | > 100 µM |  | > 97.4 µM |  | > 85.7 µM | > 46.4 µM |  | 
